Results from patent US20220096664A1, “STABILIZED FORMULATIONS CONTAINING IODINATED CONTRAST AGENTS AND CYCLODEXTRINS” (Verrow Pharmaceuticals, Inc., priority 2012, published 2022).
Where two headings read alike, the source gives them in different places.

What was measured:
[1] = Photostability: iodide formed after visible light irradiation; type: physicochemical; details: 10 mM TRIS; for Iodide formed: 50 mM agent, pH 7.4, VIS 72 h
Experimental: (§1) Aqueous solutions comprising iodinated contrast agents were prepared and evaluated in a photolysis chamber as described in the ICH guidance document, Q1B Photostability Testing of New Drug Substances and Products, available from the US Food and Drug Administration, incorporated herein by reference. The solutions were placed in 1 cm×1 cm (3 mL) quartz cuvettes having 2 clear sides and 2 sides etched. Lids were placed on the cuvettes and sealed with a wrap of Parafilm® around the joint. The cuvettes were placed in a photolysis chamber, upright on a flat surface beneath and centered between two horizontal 24 inch fluorescent lamps, (GE, black light F20T12, 20 watt for ultraviolet, or Philips F20T12/CW, 20 watt for visible) placed 6 cm apart. The cuvettes were positioned such that their two clear sides were facing the two lamps.
(§2) Cuvettes were spaced ˜2 cm from each other, and no closer than 15 cm from the ends of the lamps. This positioning allowed reproducible light exposure to all cuvettes.
(§3) The lamps were switched on and the solutions irradiated for 18 to 24 hours for the ultraviolet (UV) lamps or 72 to 90 hours for the visible (VIS) light lamps. At the end of the selected irradiation time, the cuvettes were removed from the photolysis chamber and mixed by inversion 2-times. The caps were then removed and 40 microliter aliquots taken and diluted with 1 mL of an aqueous solution containing ˜0.9 mg/mL sodium thiosulfate. The thiosulfate solution converted any I2, IO3^−, and I3^− present in the solution tor such that total iodine species could be determined in one assay.
(§4) The diluted solutions were assayed by high pressure liquid chromatography (HPLC) using a 4.6×250 mm, C-18, 5 micron particle size, reversed phase column with detection at 280 nm for the contrast agent and 230 nm for the thiosulfate and the iodide ion (r). A mobile phase of 30:70 methanol:aqueous buffer (50 mM KH2PO4+7 mL/L 40% tetrabutyl ammonium hydroxide) at 0.75 mL/min was used for elution. Injection volume was 20 microliters. External standards were prepared containing each contrast agent, potassium iodide, and sodium thiosulfate solution and analyzed along with the irradiated samples. The results were reported as weight percentage iodide formed (mg iodide/mg contrast agent times 100).
(§5) The absorbance readings at 400 nm due to light exposure were plotted against time of exposure and the resulting correlation used to determine the UV and VIS light exposure. A change in absorbance reading of 0.45 was assumed equivalent to 200 watt hours/square meter for the UV light and a change of 0.51 was assumed equivalent to 1.2 million lux hours for the VIS light. The UV lamps provided 6.62 watts/square meter and the VIS lamps provided 7180 lux.
Aqueous solutions were prepared containing 473 mM iohexol (180 mg 1/mL), 10 mM tromethamine HCl buffer (TRIS), with and without various SCDs. The pH of the solutions was adjusted to 7.4 with 0.1N hydrochloric acid. Aliquots of the solutions were irradiated with ultraviolet (UV) light for 18 hours (119 watt hours/m^2) and other aliquots irradiated with visible (VIS) light for 90 hours (0.65 million lux hours). The solutions were then processed, analyzed and reported as in Example 2, with the exception that the iohexol peak was measured at 300 nm for both samples and standards. Results of the study are presented in the table below along with the SCD used. The SCDs included derivatives prepared from alpha, beta, and gamma CD to evaluate the effect of CD cavity size. Various substituents, including one derivative containing more than one type of substituent, and degrees of substitution (DS) were also evaluated.
Aqueous solutions were prepared containing 50 mM iodinated contrast agent, 10 mM tromethamine HCl buffer (TRIS), with and without sulfobutylether beta-cyclodextrin with an average degree of substitution-7 (SBE7-β-CD), or 2-hydroxypropyl beta-cyclodextrin with an average degree of substitution of ˜6.3 (HP6.3-β-CD) or ˜4.3 (HP4.3-β-CD). […]

[2] = type: physicochemical
Experimental: as §3, §4
(§6) Aqueous solutions were prepared containing 50 mM iodinated contrast agent, 10 mM tromethamine HCl buffer (TRIS), with and without sulfobutylether beta-cyclodextrin with an average degree of substitution-7 (SBE7-β-CD), or 2-hydroxypropyl beta-cyclodextrin with an average degree of substitution of ˜6.3 (HP6.3-β-CD) or ˜4.3 (HP4.3-β-CD). The iohexol solution was prepared by dissolving solid iohexol powder while the other solutions were prepared by diluting commercial formulated products and adding sufficient TRIS buffer to reach 10 mM. The pH of the solutions was adjusted to 7.4 with 0.1N hydrochloric acid.
Aliquots of the solutions were irradiated with visible light for 72 hours (0.52 million lux hours). Other aliquots were autoclaved for 20 minutes at 121° C., cooled to room temperature and then irradiated with ultraviolet light for 18 hours (119 watt hours/m2). The solutions were then processed, analyzed and reported as in Example 2, except that the chromatographic peaks of the contrast agents were evaluated at 300 nm for both samples and standards. […]
Aqueous formulations were prepared containing iodinated contrast agents at concentrations used commercially in medical procedures. Sulfobutylether-cyclodextrin, sodium salt, average degree of substitution ˜7 (SBE7CD) was added at varying agent:CD mole ratios. The formulations were placed in glass vials, sealed with rubber stoppers and aluminum crimps, and autoclaved at 121° C. for 20 minutes. Aliquots of the autoclaved solutions were exposed to UV light for 24 hours (159 watt hours/m^2 or VIS light for 72 hours (0.52 million lux hours) as in Example 2. The solutions were then processed, analyzed and reported as in Example 2, with the following two exceptions; 1) the chromatographic peaks of the contrast agents were evaluated at 300 nm for both samples and standards, and 2) only 20 microliter sample aliquots were taken and diluted for HPLC analysis due to the higher concentrations used in this study. Results of the study are presented in the table below along with the solution compositions.

[3] = type: physicochemical; details: for Iodide formed: 50 mM agent, 10 mM TRIS
Experimental: as §3, §4, §6
Aliquots of the solutions were irradiated with visible light for 72 hours (0.52 million lux hours). Other aliquots were autoclaved for 20 minutes at 121° C., cooled to room temperature and then irradiated with ultraviolet light for 18 hours (119 watt hours/m2). The solutions were then processed, analyzed and reported as in Example 2, except that the chromatographic peaks of the contrast agents were evaluated at 300 nm for both samples and standards.
Aqueous solutions were prepared containing 50 mM iohexol, 0, 2.5, 5, 7.5, or 10 mM tromethamine HCl (TRIS) buffer, with and without 2.5 mM sulfobutylether beta-cyclodextrin with an average degree of substitution-7 (SBE7-β-CD). The pH of the solutions was adjusted to 7.4 with 0.1N hydrochloric acid and the solutions were transferred to glass vials. The vials were stoppered, crimp-capped and autoclaved for 20 minutes at 121° C. The pH of the autoclaved solutions was measured after the solutions were at room temperature.
Aliquots of the autoclaved solutions were irradiated with visible light for 72 hours (0.52 million lux hours) and other aliquots irradiated with ultraviolet light for 18 hours (119 watt hours/m2). The solutions were then processed, analyzed and reported as in Example 2, except that the chromatographic peak of the iohexol was evaluated at 300 nm for both samples and standards.
Aqueous formulations were prepared containing iodinated contrast agents at concentrations used commercially in medical procedures. Sulfobutylether-cyclodextrin, sodium salt, average degree of substitution ˜7 (SBE7CD) was added at varying agent:CD mole ratios. The formulations were placed in glass vials, sealed with rubber stoppers and aluminum crimps, and autoclaved at 121° C. for 20 minutes. […]

[4] = contrast media solutions; cited from earlier work
[5] = Photostability: iodide formed after UV light irradiation; type: physicochemical; details: 473 mM iohexol, 10 mM TRIS, pH 7.4, UV 18 h
Experimental: as §1, §2, §3, §4, §5
Aqueous solutions were prepared containing 50 mM contrast agent by diluting commercially available solutions with water. Tromethamine HCl buffer (TRIS), was added to solutions as necessary to increase the TRIS content to that of the commercial product before dilution.
SCD was added to the solutions at various mole ratios and the pH of the solutions adjusted to 7.4 with 0.1N hydrochloric acid or 0.1N sodium hydroxide. The solutions were irradiated with UV light for 18 hours (119 watt hours/m^2) then processed, analyzed and reported as in Example 2. The SCDs evaluated were sulfobutyl ether beta-cyclodextrin with an average degree of substitution of 7 (SBE-704CD), and two 2-hydroxypropyl beta-cyclodextrin derivatives having 6.3 (HP-6.3n/CD) and 4.3 (HP-4.3-βCD) average degrees of substitution.
Aqueous solutions were prepared containing 50 mM contrast agent by diluting commercially available solutions with distilled water. Tromethamine HCl buffer (TRIS), was added to some solutions to increase the buffer content.
The solutions were divided and SBE-7-CD added to one aliquot at a contrast agent:SCD mole ratio of 1:1. The pH of the solutions was adjusted to 5, 6, 7, 7.4 or 8 with 0.1N hydrochloric acid or sodium hydroxide. […]

[6] = pH 7.4, autoclaved then UV 18 h, agent:SBE7-β-CD 1:0.1
[7] = pH 7.4, autoclaved then UV 18 h, no SCD (1:0)

For CNC(=O)c1c(I)c(C(=O)NCC(=O)Nc2c(I)c(C(=O)O)c(I)c(C(=O)NCCO)c2I)c(I)c(N(C)C(C)=O)c1I [Ioxaglate, ioxaglate], the Iodide formed ([1]; agent:SBE7-β-CD 1:0.1) was 0.211 wt %, the Iodide formed ([1]; no SCD (1:0)) was 0.231 wt % and the “Iodide Formed, Autoclaved” value ([2]; Ioxaglate 320 mg I/mL (393 mg ioxaglate meglumine and 196 mg ioxaglate sodium), pH 7.0, no SCD (1:0)) was 0.00457 wt %. The “Iodide Formed, Autoclaved” value ([2]; Ioxaglate 320 mg I/mL, pH 7.0, agent:SBE7CD 1:0.05) was 0.00329 wt %, the Iodide formed [3, 6] was 0.332 wt % and the Iodide formed [3, 7] was 0.392 wt %. For the same molecule, the “Iodide Formed, UV” value ([3]; Ioxaglate 320 mg I/mL, pH 7.0, agent:SBE7CD 1:0.05, autoclaved then UV 24 h) was 0.0845 wt %, the “Iodide Formed, VIS” value ([3]; Ioxaglate 320 mg I/mL, pH 7.0, agent:SBE7CD 1:0.05, autoclaved then VIS 72 h) was 0.0175 wt % and the “Iodide Formed, UV” value ([3]; Ioxaglate 320 mg I/mL, pH 7.0, no SCD (1:0), autoclaved then UV 24 h) was 0.114 wt %. The “Iodide Formed, VIS” value ([3]; Ioxaglate 320 mg I/mL, pH 7.0, no SCD (1:0), autoclaved then VIS 72 h) was 0.0197 wt %.

For C[C@H](O)C(=O)Nc1c(I)c(C(=O)NC(CO)CO)c(I)c(C(=O)NC(CO)CO)c1I [Iopamidol, iopamidol], the Iodide formed ([1]; agent:SBE7-β-CD 1:0.1) was 0.355 wt %, the Iodide formed ([1]; no SCD (1:0)) was 0.356 wt % and the “Iodide Formed, Autoclaved” value ([2]; Iopamidol 200 mg I/mL, pH 7, agent:SBE7CD 1:0.05) was 0.00338 wt %. The “Iodide Formed, Autoclaved” value ([2]; Iopamidol 200 mg I/mL, pH 7, no SCD (1:0)) was 0.00347 wt %, the “stabilization against degradation from autoclaving+visible light irradiation” value [3] was “stabilized all formulations except iopamidol” and the Iodide formed [3, 6] was 0.470 wt %. For the same molecule, the Iodide formed [3, 7] was 0.540 wt %, the Iodide formed ([3]; pH 7.4, autoclaved then visible light, agent:SBE7-β-CD 1:0.1) was 0.344 wt % and the Iodide formed ([3]; pH 7.4, autoclaved then visible light, no SCD (1:0)) was 0.348 wt %. For the same molecule, the “Iodide Formed, UV” value ([3]; Iopamidol 200 mg I/mL, pH 7, agent:SBE7CD 1:0.05, autoclaved then UV 24 h) was 0.145 wt %, the “Iodide Formed, VIS” value ([3]; Iopamidol 200 mg I/mL, pH 7, agent:SBE7CD 1:0.05, autoclaved then VIS 72 h) was 0.0574 wt % and the “Iodide Formed, UV” value ([3]; Iopamidol 200 mg I/mL, pH 7, no SCD (1:0), autoclaved then UV 24 h) was 0.150 wt %. For the same molecule, the “Iodide Formed, VIS” value ([3]; Iopamidol 200 mg I/mL, pH 7, no SCD (1:0), autoclaved then VIS 72 h) was 0.0570 wt %.

For CNC(=O)c1c(I)c(NC(C)=O)c(I)c(C(=O)O)c1I [iothalamate sodium], the “degradation in solution after exposure to ultraviolet light” value [4] is given as “formation of iodine and iodide ions”.

In the case of “sulfobutylether 3.5-ethylether 3.5-beta-cyclodextrin [SBE-EE-βCD]”, the “I- formed, UV” value ([5]; iohexol:SCD 1:0.05) is reported as 0.0825 wt %, the “% Change in iodide degradants (UV)” value ([5]; iohexol:SCD 1:0.05 vs control) is reported as −22.9% (UV) and the “I- formed, VIS” value ([1]; 473 mM iohexol, pH 7.4, VIS 90 h, iohexol:SCD 1:0.05) is reported as 0.0584 wt %. For the same molecule, the “% Change in iodide degradants (Vis)” value ([1]; 473 mM iohexol, pH 7.4, VIS 90 h, iohexol:SCD 1:0.05 vs control) was −5.3% (Vis).
